The text below walks through data of US20240002394A1, “DEUTERIUM-MODIFIED THIENOPYRIDONE COMPOUND” (Chia Tai Tianqing Pharmaceutical Group Co., Ltd., priority 2020, published 2024).

Series [1] deals with Jurkat cell p-SLP76 phosphorylation. Put plainly: Assay for Jurkat cell p-SLP76 phosphorylation inhibitory activity. The class given is cell-based. Particulars: Homo sapiens, 0.5 h; Jurkat cells, CD3CD28 stimulation 30 min; read-out: Jurkat cell p-SLP76 phosphorylation inhibition IC50. As to the method:
The Jurkat cells in a good growth state were added to a centrifuge tube, centrifuged, and resuspended. The cell density was adjusted to 6.25×10^6 cells/mL, and the cells were seeded in a 384-well small-volume white plate at 8 μL/well. Compounds were added in duplicate using a nanoliter pipettor to final concentrations of 2500 nM to 10.29 nM and a control was set. After 1 h of cell culture, the stimulator CD3CD28 (4 μL; manufacturer: Stemcell) was added and the cells were incubated at 37° C. for 30 min. 3 μL of lysis buffer (manufacturer: BioAuxilium) was added to each well, and the plate was shaken at room temperature for 30 min. After the lysate was well mixed, 5 μL of pre-mixed antibody (manufacturer: BioAuxilium) in assay buffer was added and the plate was incubated overnight at room temperature. The signal values were measured on a PerkinElmer Envision multi-functional microplate reader (excitation: 320 nm, emission: 615 nm/665 nm), and IC50 was calculated by four-parameter fitting.

The next series deals with HPK1 (Homo sapiens (Human), UniProt Q92918). Put plainly: Assay for in vitro inhibitory activity against HPK1 kinase. Conditions: ATP 0.1 mM; HTRF, STK Substrate 1-biotin; read-out: In vitro inhibitory activity against enzyme HPK1 IC50. The class given is biochemical. The protocol:
The kinase buffer (Enzymatic buffer 5×) was diluted to 1×, and 10 mM MgCl2, 1 mM DTT, and 0.005% Tween 20 were added. The 100 ng/μL HPK1 (Life technology) stock solution was diluted with the kinase buffer to obtain a 1.67×, 1.67 ng/μL working solution (final concentration: 1 ng/μL), and the working solution was seeded in a 384-well plate at 6 μL/well. Different compounds dissolved in DMSO were added to the wells using a nanoliter pipettor to final concentrations of 1000 nM to 0.244 nM (4-fold serial dilution, 7 concentrations in total), and blank control wells (without enzyme) and negative control wells (with enzyme, plus vehicle DMSO) were set; the wells were set in duplicate. After the enzyme and compounds were incubated at room temperature for 1 h, a 5×, 0.5 mM ATP dilution (final concentration: 0.1 mM) in the kinase buffer was mixed with a 5×, 2.5 μM substrate (Cisbio, STK Substrate 1-biotin; final concentration: 500 nM) in equal volume, and the mixture was added to each well at 4 μL/well. The plate was sealed with a film and then incubated at room temperature for 2 h. An assay antibody solution was prepared by mixing the antibody STK Antibody-cryptate (Cisbio, 5 μL/test) and a 4×, 500 nM Streptavidin-XL665 (Cisbio; final concentration: 125 nM) in equal volume and was added to each well at 10 μL/well, and the plate was incubated at room temperature for 1 h. The signal values ([…]) were measured using a PE Envision multi-functional microplate reader, and IC50 was calculated by four-parameter fitting.

Series [2] can be described thus: In vitro liver microsomal stability (HLM). The class given is in vitro ADME, human. As to the method:
(§1) Preparation of liver microsome incubated samples: PBS buffer (pH 7.4), liver microsome solutions (0.5 mg/mL; HLM and MLM, respectively), the test compounds and NADPH+MgCl2 solution were mixed and incubated at 37° C. at 300 rpm for 1 h. Preparation of zero-hour samples: PBS buffer (pH 7.4), liver microsome solutions (0.5 mg/mL; HLM and MLM, respectively) and the test compounds were mixed. An acetonitrile solution containing internal standard was added to the samples, and supernatants were prepared by protein precipitation, diluted and then analyzed by LC/MS/MS.
Background: Liver microsomes are vesicles of endoplasmic reticulum, rich in cytochrome P450 enzymes.

A short description of series [3]: In vitro liver microsomal stability (MLM). The class given is in vitro ADME, mouse. The protocol:
as §1

Where [4] appears, read: HLM 0.5 mg/mL, 37° C., NADPH, 60 min.
Setting [5] is: MLM 0.5 mg/mL, 37° C., NADPH, 60 min.

Structures are written as SMILES.

Broadly, the IC50 is the concentration at which inhibition is half-maximal.

HPK1, sequence (Q92918 whole entry): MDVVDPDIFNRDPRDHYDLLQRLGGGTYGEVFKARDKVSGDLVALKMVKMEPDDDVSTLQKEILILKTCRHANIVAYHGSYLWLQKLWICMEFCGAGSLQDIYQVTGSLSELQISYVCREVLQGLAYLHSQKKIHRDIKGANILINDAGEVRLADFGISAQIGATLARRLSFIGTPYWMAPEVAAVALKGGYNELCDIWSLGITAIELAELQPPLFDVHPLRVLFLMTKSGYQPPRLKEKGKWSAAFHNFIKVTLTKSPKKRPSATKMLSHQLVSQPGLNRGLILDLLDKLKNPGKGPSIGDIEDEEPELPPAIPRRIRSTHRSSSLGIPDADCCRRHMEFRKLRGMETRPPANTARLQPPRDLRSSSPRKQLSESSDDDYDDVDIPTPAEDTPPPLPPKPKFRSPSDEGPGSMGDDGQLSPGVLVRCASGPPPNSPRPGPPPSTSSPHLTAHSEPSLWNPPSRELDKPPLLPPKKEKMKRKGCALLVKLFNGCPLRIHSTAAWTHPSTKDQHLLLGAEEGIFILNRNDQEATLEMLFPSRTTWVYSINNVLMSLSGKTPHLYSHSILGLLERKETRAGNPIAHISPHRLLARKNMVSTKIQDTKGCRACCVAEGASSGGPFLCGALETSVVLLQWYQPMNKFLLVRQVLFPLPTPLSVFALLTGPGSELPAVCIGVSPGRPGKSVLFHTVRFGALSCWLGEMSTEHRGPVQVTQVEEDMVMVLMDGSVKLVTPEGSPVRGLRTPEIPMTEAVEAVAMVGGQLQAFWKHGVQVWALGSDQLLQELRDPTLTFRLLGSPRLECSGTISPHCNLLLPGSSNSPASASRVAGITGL

Turning to `[2H]C1([2H])CN(C)CC([2H])([2H])N1c1ccc2[nH]c(-c3c(N)c4ccsc4[nH]c3=O)nc2c1` [Example 4, 4-amino-5-(5-(4-methylpiperazin-1-yl-2,2,6,6-d4)-1H-benzo[d]imidazol-2-yl)thieno[2,3-b]pyridin-6(7H)-one], the IC50 in series [1] stood at 83 nM; on HPK1 it was 9.2 nM. In series [2] (human, microsomes, 1 h, pH 7.4), the “HLM (0.5 mg/mL) Remaining percentage (T = 60 min)” value stood at 88.50%. Moreover, the “MLM (0.5 mg/mL) Remaining percentage (T = 60 min)” value in series [3] (mouse, microsomes, 1 h, pH 7.4) turned out to be 42.58%.

As to `[2H]C1([2H])CN(c2ccc3[nH]c(-c4c(N)c5ccsc5[nH]c4=O)nc3c2)CC([2H])([2H])N1C` [Example 3, 4-amino-5-(5-(4-methylpiperazin-1-yl-3,3,5,5-d4)-1H-benzo[d]imidazol-2-yl)thieno[2,3-b]pyridin-6(7H)-one], the IC50 at HPK1 is 7.5 nM. Also, in series [2] (setting [4]), the “HLM (0.5 mg/mL) Remaining percentage (T = 60 min)” value is listed as 90.85%. In addition, in series [3] (setting [5]), the “MLM (0.5 mg/mL) Remaining percentage (T = 60 min)” value is listed as 45.47%.

As to `[2H]C1([2H])N(C)C([2H])([2H])C([2H])([2H])N(c2ccc3[nH]c(-c4c(N)c5ccsc5[nH]c4=O)nc3c2)C1([2H])[2H]` [Example 2, 4-amino-5-(5-(4-methylpiperazin-1-yl-2,2,3,3,5,5,6,6-d8)-1H-benzo[d]imidazol-2-yl)thieno [2,3-b]pyridin-6(7H)-one], on HPK1, the IC50 was determined as 9.7 nM. Moreover, in series [2] (setting [4]), the “HLM (0.5 mg/mL) Remaining percentage (T = 60 min)” value came to 89.66%. Besides, in series [3] (setting [5]), the “MLM (0.5 mg/mL) Remaining percentage (T = 60 min)” value worked out at 45.97%.

For the molecule `[2H]c1cc2c(N)c(-c3nc4c([2H])c(N5CCN(C)CC5)c([2H])cc4[nH]3)c(=O)[nH]c2s1` [Example 5, 4-amino-5-(5-(4-methylpiperazin-1-yl)-1H-benzo[d]imidazol-2-yl-4,6-d2)thieno[2,3-b]pyridin-6(7H)-one-2-d], the IC50 in series [1] stood at 53 nM; at HPK1, 8.8 nM.
